We go through 38 molecules from patent US8618151B2, “Inhibitors of HCV NS5A” (Presidio Pharmaceuticals, Inc., priority 2008, dated 2013).

For this assay, the system named is HCV genotype 1b replicon. Nature of the assay: HCV replicon assay (1b_Huh-Luc/Neo-ET cell line, luciferase readout). Format: cell-based. The following applies: Hepatitis C virus, Huh-7, 72 h, read-out: Inhibition of HCV genotype 1b. A digest of the protocol: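 1b_Huh-Luc/Neo-ET Huh 7 cells carrying a bicistronic genotype 1b replicon; compounds added in triplicate the day after plating, 72 h incubation, then Bright-Glo luciferase read-out. Signal expressed as % of control; EC50 from curve fit, repeated several times.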
For orientation: Replicon systems follow genome replication, usually without infectious particles.
With `COC(=O)N[C@H](C(=O)N1CCC[C@H]1c1nc(-c2ccc3cc(-c4ccc(-c5cnc([C@@H]6CCCN6C(=O)[C@H](NC(=O)OC6CCOCC6)c6ccccc6)[nH]5)cc4)ccc3c2)c[nH]1)C1CCOCC1` [compound 113], the EC50 was < 1 nM. On to `COC(=O)N[C@H](C(=O)N1CCC[C@H]1c1nc(-c2ccc3cc(-c4ccc(-c5cnc([C@@H]6CCCN6C(=O)[C@H](NC(=O)OC)c6ccccc6)[nH]5)cc4F)ccc3c2)c[nH]1)C1CCOCC1` [compound 114], for which the EC50 was < 1 nM.

On to `COC(=O)N[C@H](C(=O)N1CCC[C@H]1c1ncc(-c2ccc3cc(-c4ccc(-c5cnc([C@@H]6CCCN6C(=O)[C@H](NC(=O)OC)c6ccccc6)[nH]5)cc4)ccc3c2)[nH]1)[C@@H](C)OC` [compound 115], for which the EC50 is < 1 nM.

Take `COC(=O)N[C@H](C(=O)N1CCC[C@H]1c1ncc(-c2ccc3cc(-c4ccc(-c5cnc([C@@H]6CCCN6C(=O)[C@@H](c6ccccc6)N6CCOCC6)[nH]5)cc4)ccc3c2)[nH]1)C(C)C` [compound 116]: the EC50 was < 1 nM.

For `COC(=O)N[C@H](C(=O)N1CCC[C@H]1c1ncc(-c2ccc3cc(-c4ccc(-c5cnc([C@@H]6CCCN6C(=O)[C@H](NC(=O)OC6CCOCC6)c6ccccc6)[nH]5)cc4)ncc3c2)[nH]1)C1CCOCC1` [compound 117], the EC50 was < 1 nM. As to `COC(=O)N[C@H](C(=O)N1CCC[C@H]1c1ncc(-c2ccc3cc(-c4ccc(-c5cnc([C@@H]6CCCN6C(=O)[C@H](NC(=O)OC(C)(C)C)c6ccccc6)[nH]5)cc4)ncc3c2)[nH]1)C1CCOCC1` [compound 118], the EC50 was < 1 nM.

Consider `COC(=O)N[C@H](C(=O)N1CCC[C@H]1c1ncc(-c2ccc(-c3ccc4cc(-c5cnc([C@@H]6CCCN6C(=O)[C@H](NC(=O)OC)c6ccccc6)[nH]5)ccc4n3)c(F)c2)[nH]1)C(C)C` [compound 119], for which the EC50 was < 1 nM. As for `COC(=O)N[C@H](C(=O)N1CCC[C@H]1c1ncc(-c2ccc(-c3ccc4cc(-c5cnc([C@@H]6CCCN6C(=O)[C@@H](NC(=O)OC)C6CCOCC6)[nH]5)ccc4n3)c(F)c2)[nH]1)C(C)C` [compound 120], the figure is < 1 nM; as for `COC(=O)N[C@H](C(=O)N1CCC[C@H]1c1ncc(-c2ccc(-c3ccc4cc(-c5cnc([C@@H]6CCCN6C(=O)[C@H](NC(=O)OC6CCOCC6)c6ccccc6)[nH]5)ccc4n3)c(F)c2)[nH]1)C(C)C` [compound 121], < 1 nM; as for `COC(=O)N[C@H](C(=O)N1CCC[C@H]1c1ncc(-c2ccc(-c3ccc4cc(-c5cnc([C@@H]6CCCN6C(=O)[C@H](NC(=O)OC(C)(C)C)c6ccccc6)[nH]5)ccc4n3)c(F)c2)[nH]1)C(C)C` [compound 122], < 1 nM.

As for `COC(=O)N[C@H](C(=O)N1CCC[C@H]1c1ncc(-c2ccc(-c3ccc4cc(-c5cnc([C@@H]6CCCN6C(=O)[C@@H](NC(=O)OC)C6CCOCC6)[nH]5)ccc4n3)cc2F)[nH]1)C(C)C` [compound 123], the EC50 was < 1 nM. Next, `COC(=O)N[C@H](C(=O)N1CCC[C@H]1c1ncc(-c2ccc(-c3ccc4cc(-c5cnc([C@@H]6CCCN6C(=O)[C@H](NC(=O)OC)c6ccccc6)[nH]5)ccc4n3)cc2F)[nH]1)C(C)C` [compound 124]: < 1 nM; `COC(=O)N[C@H](C(=O)N1CCC[C@H]1c1ncc(-c2ccc(-c3ccc4cc(-c5cnc([C@@H]6CCCN6C(=O)[C@H](NC(=O)OC6CCOCC6)c6ccccc6)[nH]5)ccc4n3)cc2F)[nH]1)C(C)C` [compound 125]: < 1 nM. Next, `COC(=O)N[C@H](C(=O)N1CCC[C@H]1c1ncc(-c2ccc3nc(-c4ccc(-c5cnc([C@@H]6CCCN6C(=O)[C@@H](NC(=O)OC)C(C)C)[nH]5)c(F)c4)ccc3c2)[nH]1)C(C)C` [compound 126]: < 1 nM; `COC(=O)N[C@H](C(=O)N1CCC[C@H]1c1ncc(-c2ccc3cc(-c4ccc(-c5cnc([C@@H]6CCCN6C(=O)[C@H](NC(=O)OC)c6ccccc6)[nH]5)c(F)c4)ncc3c2)[nH]1)C1CCOCC1` [compound 127]: < 1 nM; `COC(=O)N[C@H](C(=O)N1CCC[C@H]1c1ncc(-c2ccc(-c3cc4ccc(-c5cnc([C@@H]6CCCN6C(=O)[C@@H](NC(=O)OC)C6CCOCC6)[nH]5)cc4cn3)cc2F)[nH]1)C(C)C` [compound 128]: < 1 nM.

As to `COC(=O)N[C@H](C(=O)N1CCC[C@H]1c1ncc(-c2ccc(-c3ccc4cc(-c5cnc([C@@H]6CCCN6C(=O)[C@H](NC(=O)OC)c6ccccc6)[nH]5)ccc4n3)c(F)c2)[nH]1)C1CCOCC1` [compound 129], the EC50 is < 1 nM.

Regarding `COC(=O)N[C@H](C(=O)N1CCC[C@H]1c1ncc(-c2cccc(-c3cccc4cc(-c5cnc([C@@H]6CCCN6C(=O)[C@@H](NC(=O)OC)C(C)C)[nH]5)ccc34)c2)[nH]1)C(C)C` [compound 130], the EC50 is < 1 nM.

Turning to `COC(=O)N[C@H](C(=O)N1CCC[C@H]1c1ncc(-c2ccc3cc(-c4ccc(-c5cnc([C@@H]6COCCN6C(=O)[C@H](NC(=O)OC)c6ccccc6)[nH]5)cc4)ccc3c2)[nH]1)C(C)C` [compound 131], the EC50 is < 1 nM.

In the case of `COC(=O)N[C@H](C(=O)N1CCC[C@H]1c1ncc(-c2ccc(-c3ccc4cc(-c5cnc([C@@H]6COCCN6C(=O)[C@H](NC(=O)OC)c6ccccc6)[nH]5)ccc4c3)cc2)[nH]1)C(C)C` [compound 132], the EC50 is < 1 nM.

With `COC(=O)N[C@H](C(=O)N1CCC[C@H]1c1ncc(-c2ccc(-c3ccc4cc(-c5cnc([C@@H]6CCCN6C(=O)[C@@H](NC(=O)OC)C6CCOCC6)[nH]5)ccc4c3)cc2)[nH]1)C1CCOCC1` [compound 133], the EC50 is < 1 nM.

As for `COC(=O)N[C@H](C(=O)N1CCC[C@H]1c1ncc(-c2ccc3nc(-c4ccc(-c5cnc([C@@H]6CCCN6C(=O)[C@H](NC(=O)OC)c6ccccc6)[nH]5)cc4F)ccc3c2)[nH]1)C1CCOCC1` [compound 134], the EC50 was < 1 nM. As for `COC(=O)N[C@H](C(=O)N1CCC[C@H]1c1ncc(-c2ccc3nc(-c4ccc(-c5cnc([C@@H]6CCCN6C(=O)[C@H](NC(=O)OC(C)(C)C)c6ccccc6)[nH]5)cc4F)ccc3c2)[nH]1)C1CCOCC1` [compound 135], the figure is < 1 nM; as for `COC(=O)N[C@H](C(=O)N1CCC[C@H]1c1ncc(-c2ccc(-c3ccc4cc(-c5cnc([C@@H]6CCCN6C(=O)[C@H](NC(=O)OC(C)(C)C)c6ccccc6)[nH]5)ccc4n3)c(F)c2)[nH]1)C1CCOCC1` [compound 136], < 1 nM. Regarding `COC(=O)N[C@H](C(=O)N1CCOC[C@H]1c1ncc(-c2ccc(-c3ccc4cc(-c5cnc([C@@H]6CCCN6C(=O)[C@H](NC(=O)OC)c6ccccc6)[nH]5)ccc4c3)cc2)[nH]1)C(C)C` [compound 137], the EC50 was < 1 nM. On to `COC(=O)N[C@H](C(=O)N1CCOC[C@H]1c1ncc(-c2ccc3cc(-c4ccc(-c5cnc([C@@H]6CCCN6C(=O)[C@H](NC(=O)OC)c6ccccc6)[nH]5)cc4)ccc3c2)[nH]1)C(C)C` [compound 138], for which the EC50 is < 1 nM.

As to `COC(=O)N[C@H](C(=O)N1CCC[C@H]1c1ncc(-c2ccc3cc(-c4ccc(-c5cnc([C@@H]6COCCN6C(=O)[C@@H](NC(=O)OC)C(C)C)[nH]5)cc4)ccc3c2)[nH]1)C(C)C` [compound 139], the EC50 is < 1 nM. With `COC(=O)N[C@H](C(=O)N1CCC[C@H]1c1ncc(-c2ccc(-c3ccc4cc(-c5cnc([C@@H]6COCCN6C(=O)[C@@H](NC(=O)OC)C(C)C)[nH]5)ccc4c3)cc2)[nH]1)C(C)C` [compound 140], the EC50 was < 1 nM. Next, `COC(=O)N[C@H](C(=O)N1CCC[C@H]1c1ncc(-c2ccc(-c3ccc4cc(-c5cnc([C@@H]6CCCN6C(=O)[C@@H](NC(=O)OC)C6CCOCC6)[nH]5)ccc4c3)c(F)c2)[nH]1)C1CCOCC1` [compound 141]: < 1 nM.

`CC[C@@H](C)[C@H](NC(=O)OC)C(=O)N1CCC[C@H]1c1ncc(-c2ccc(-c3ccc4cc(-c5cnc([C@@H]6CCCN6C(=O)[C@@H](NC(=O)OC)[C@H](C)CC)[nH]5)ccc4c3)cc2)[nH]1` [compound 142]: the EC50 was < 1 nM. Next, `COC(=O)N[C@H](C(=O)N1CCC[C@H]1c1ncc(-c2ccc(-c3ccc4cc(-c5cnc([C@@H]6CCCN6C(=O)[C@@H](NC(=O)OC)C6CC6)[nH]5)ccc4c3)cc2)[nH]1)C1CC1` [compound 143]: < 1 nM. For `CNC(=O)N[C@@H](C(=O)N1CCC[C@H]1c1ncc(-c2ccc(-c3cc4ccc(-c5cnc([C@@H]6CCCN6C(=O)[C@@H](NC(=O)OC)C6CCOCC6)[nH]5)cc4cn3)cc2)[nH]1)c1ccccc1` [compound 144], the EC50 is < 1 nM. Next, `COC(=O)N[C@H](C(=O)N1CCC[C@H]1c1ncc(-c2ccc3cc(-c4ccc(-c5cnc([C@@H]6CCCN6C(=O)[C@H](NC(=O)NC6CC6)c6ccccc6)[nH]5)cc4)ncc3c2)[nH]1)C1CCOCC1` [compound 145]: < 1 nM; `COC(=O)N[C@H](C(=O)N1CCC[C@H]1c1ncc(-c2ccc3nc(-c4ccc(-c5cnc([C@@H]6C[C@@H](O)CN6C(=O)[C@@H](NC(=O)OC)C(C)C)[nH]5)cc4)ccc3c2)[nH]1)C(C)C` [compound 146]: < 1 nM; `COC(=O)N[C@H](C(=O)N1C[C@H](O)C[C@H]1c1ncc(-c2ccc(-c3ccc4cc(-c5cnc([C@@H]6CCCN6C(=O)[C@@H](NC(=O)OC)C6CCOCC6)[nH]5)ccc4n3)cc2)[nH]1)C(C)C` [compound 147]: < 1 nM. As for `COC(=O)N[C@H](C(=O)N1C[C@H](O)C[C@H]1c1ncc(-c2ccc(-c3ccc4cc(-c5cnc([C@@H]6CCCN6C(=O)[C@H](NC(=O)OC)c6ccccc6)[nH]5)ccc4n3)cc2)[nH]1)C(C)C` [compound 148], the figure is < 1 nM; as for `COC(=O)N[C@H](C(=O)N1C[C@H](O)C[C@H]1c1ncc(-c2ccc(-c3ccc4cc(-c5cnc([C@@H]6CCCN6C(=O)[C@H](NC(=O)OC6CCOCC6)c6ccccc6)[nH]5)ccc4n3)cc2)[nH]1)C(C)C` [compound 149], < 1 nM; as for `COC(=O)N[C@H](C(=O)N1CCC[C@H]1c1ncc(-c2ccc(-c3cc4ccc(-c5cnc([C@@H]6CCCN6C(=O)[C@@H](NC(=O)OC)C(C)C)[nH]5)cc4cn3)c(F)c2)[nH]1)C(C)C` [compound 150], < 1 nM.
